Assay results: the supplement of paper PMC10307832

Tests used:
Test in all cases: relative viability (nuclei count vs DMSO), 5 days (fraction); higher = more cells survive
[1] = compound: CC1=CC(=NN1)NC2=CC(=NC(=N2)/C=C/C3=CC=CC=C3)N4CCN(CC4)C
How it was run: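 After an overnight hold at 37 °C, lung cancer cell lines in 1536-well plates were pinned with five library-drug doses (not always all listed), each √10 from the next, on vehicle-anchored plates. The cells stayed 5 days without fresh medium, then a one-step fix, permeabilisation and Hoechst stain preceded 4× imaging and MetaXpress nuclear counts. A plate passed only with control CV under 25% and at least one doubling. Viability is the median, over plates, of treated-well nuclei relative to vehicle-well nuclei.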

Bortezomib + Trametinib = compound: CC(C)C[C@H](NC(=O)[C@H](Cc1ccccc1)NC(=O)c1cnccn1)B(O)O [Bortezomib] + CC(=O)Nc1cccc(-n2c(=O)n(C3CC3)c(=O)c3c(Nc4ccc(I)cc4F)n(C)c(=O)c(C)c32)c1 [Trametinib] (partner 0.02 µM)
How it was run: (§1)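 Relative viability is defined as nuclei in treated wells over nuclei in vehicle wells. Duplicate plates were run and medians reported. Lung cancer cell lines in 1536-well plates were dosed by pin tool one day after seeding, with one drug or with a fixed anchor-drug dose plus five library-drug doses (not always all listed) in √10 steps, and nuclei were counted after 5 days.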

Bortezomib + Olaparib = compound: CC(C)C[C@H](NC(=O)[C@H](Cc1ccccc1)NC(=O)c1cnccn1)B(O)O [Bortezomib] + O=C(c1cc(Cc2n[nH]c(=O)c3ccccc23)ccc1F)N1CCN(C(=O)C2CC2)CC1 [Olaparib] (partner 8 µM)
How it was run: as §1

[2] = compound: CC1=CC(=NN1)NC2=CC(=NC(=N2)/C=C/C3=CC=CC=C3)N4CCN(CC4)C + CCNC(=O)c1noc(-c2cc(C(C)C)c(O)cc2O)c1-c1ccc(CN2CCOCC2)cc1 [Luminespib] (partner 0.01 µM)
How it was run: as §1

Cell Line	relative viability ([1]; 0.08 µM)	relative viability ([1]; 0.253 µM)	relative viability ([1]; 0.8 µM)	relative viability ([1]; 2.53 µM)	relative viability ([1]; 8 µM)	relative viability (Bortezomib + Trametinib; first compound 0.0002 µM)	relative viability (Bortezomib + Trametinib; first compound 0.000632 µM)	relative viability (Bortezomib + Trametinib; first compound 0.002 µM)	relative viability (Bortezomib + Trametinib; first compound 0.006325 µM)	relative viability (Bortezomib + Trametinib; first compound 0.02 µM)	relative viability (Bortezomib + Olaparib; first compound 0.0002 µM)	relative viability (Bortezomib + Olaparib; first compound 0.000632 µM)	relative viability (Bortezomib + Olaparib; first compound 0.002 µM)	relative viability (Bortezomib + Olaparib; first compound 0.006325 µM)	relative viability (Bortezomib + Olaparib; first compound 0.02 µM)	relative viability ([2]; first compound 0.08 µM)	relative viability ([2]; first compound 0.253 µM)	relative viability ([2]; first compound 0.8 µM)	relative viability ([2]; first compound 2.53 µM)	relative viability ([2]; first compound 8 µM)
NCI-H1651	1.03	0.992	0.939	0.712	0.288	0.802	0.843	0.726	0.155	0.117	0.181	0.194	0.144	0.0868	0.0799	0.754	0.854	0.912	0.643	0.244
NCI-H1666	0.973	0.894	1.09	0.847	0.594	0.918	0.972	0.914	0.599	0.522	0.684	0.783	0.697	0.511	0.45	0.987	1.01	1.02	0.985	0.328
NCI-H1734	0.939	0.913	0.799	0.328	0.155	0.647	0.7	0.685	0.161	0.0924	0.555	0.661	0.443	0.115	0.0968	0.178	0.236	0.163	0.145	0.109
NCI-H1755	1.03	1.05	1.02	0.722	0.443	0.761	0.77	0.706	0.279	0.223	0.845	0.896	0.828	0.241	0.207	0.496	0.416	0.748	0.346	0.157
NCI-H1792	0.957	0.934	0.813	0.338	0.0683	0.506	0.413	0.446	0.292	0.0651	0.415	0.313	0.531	0.062	0.046	0.407	0.375	0.412	0.319	0.122
NCI-H1793	0.894	0.979	0.858	0.179	0.106	0.445	–	0.457	0.414	0.132	0.848	–	0.904	0.276	0.126	0.16	0.184	0.151	0.136	0.116
NCI-H1915	1	0.96	0.96	0.705	0.22	0.283	0.307	0.33	0.196	0.0537	0.251	0.257	0.244	0.056	0.0357	0.772	0.868	0.745	0.471	0.12
NCI-H1944	0.987	0.98	0.953	0.657	0.465	0.43	0.371	0.397	0.297	0.193	0.419	0.392	0.414	0.331	0.142	0.63	1.06	0.815	0.553	0.164
NCI-H1975	0.954	0.956	0.984	0.458	0.152	0.501	0.312	0.152	0.11	0.0939	0.779	0.766	0.16	0.103	0.126	0.178	0.28	0.199	0.151	0.118
NCI-H1993	0.91	0.882	1.27	0.571	0.423	0.51	0.507	0.527	0.452	0.375	1.01	1.01	0.679	0.363	0.398	0.882	0.944	0.843	0.779	0.391
NCI-H2009	0.995	0.95	0.997	0.646	0.243	0.322	0.223	0.256	0.0731	0.0528	0.654	0.661	0.693	0.222	0.049	0.989	1.04	0.987	1.05	0.2
NCI-H2023	1.01	1.02	0.859	0.108	0.0691	0.631	0.569	0.533	0.131	0.0889	0.427	0.473	0.485	0.0778	0.0633	0.741	1.12	0.524	0.0645	0.0624
NCI-H2085	1.04	1.05	0.95	0.695	0.323	0.622	0.501	0.54	0.228	0.155	0.8	0.802	0.688	0.232	0.211	0.358	0.417	0.438	0.318	0.184
NCI-H2087	0.959	0.761	1.09	0.277	0.13	0.201	0.187	0.149	0.0967	0.0704	0.634	0.672	0.286	0.0419	0.0226	0.209	0.212	0.158	0.119	0.136
